Data published in PubChem BioAssay AID330 (DTP/NCI, 2004).
“And” between values parts separate entries of the source, which are not always exact repeats. Identical values can stand only once. Inconclusive results and toxic doses are left out. Rule for the calls: active = survival T/C of 150% or more; inactive = T/C below 125% in these data.

System: P388 leukemia ip, CD2F1 mice, survival T/C
Experiment: NCI In Vivo Anticancer Drug Screen. Data for tumor model P388 Leukemia (intraperitoneal) in CD2F1 (CDF1) mice
Conditions: endpoint: median survival time, higher = longer survival
Outline: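 Mice carrying the transplanted tumor received test compound or vehicle. Survival was recorded in each group, and the value is the treated-group measurement divided by that of the vehicle-treated control group.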

[1] = dose: 25.0 mg/kg/injection, schedule: Q01DX009 (ip), vehicle: saline
[2] = dose: 50.0 mg/kg/injection, schedule: Q01DX009 (ip), vehicle: saline
[3] = dose: 100.0 mg/kg/injection, schedule: Q01DX009 (ip), vehicle: saline
[4] = dose: 200.0 mg/kg/injection, schedule: Q01DX009 (ip), vehicle: saline
[5] = dose: 12.5 mg/kg/injection, schedule: Q01DX009 (ip), vehicle: saline
[6] = dose: 50.0 mg/kg/injection, schedule: Q01DX009 (ip), vehicle: saline with Tween-80
[7] = dose: 60.0 mg/kg/injection, schedule: Q01DX005 (ip), vehicle: Klucel (hydroxypropylcellulose) (HPC)
[8] = dose: 120.0 mg/kg/injection, schedule: Q01DX005 (ip), vehicle: Klucel (hydroxypropylcellulose) (HPC)
[9] = dose: 100.0 mg/kg/injection, schedule: Q01DX009 (ip), vehicle: saline with Tween-80
[10] = dose: 200.0 mg/kg/injection, schedule: Q01DX009 (ip), vehicle: saline with Tween-80
[11] = dose: 100.0 mg/kg/injection, schedule: Q01DX001 (ip), vehicle: Klucel (hydroxypropylcellulose) (HPC)

Measured: T/C

CC1=NN(c2ccccc2)C(=O)C1N=Nc1cc([N+](=O)[O-])cc(S(=O)(=O)O)c1O.CC1=NN(c2ccccc2)C(=O)C1N=Nc1cc([N+](=O)[O-])cc(S(=O)(=O)O)c1O.[Cr] (stereo not given)
inactive: [1] 106 % of control and 108 % of control | [2] 111 % of control and 112 % of control and 115 % of control | [3] 119 % of control and 124 % of control (2×) | [4] 101 % of control and 103 % of control and 115 % of control

CN(C)CCC(C#N)(CCN(C)C)c1ccccc1
inactive: dose: 50.0 mg/kg/injection, schedule: Q01DX005 (ip), vehicle: saline 105 % of control | dose: 100.0 mg/kg/injection, schedule: Q01DX005 (ip), vehicle: saline 103 % of control | dose: 200.0 mg/kg/injection, schedule: Q01DX005 (ip), vehicle: saline 106 % of control

CCCCCCCC/C=C\CCCCCCCC(=O)NCCCN(C)C
inactive: [5] 98 % of control | [1] 91 % of control | [6] 112 % of control

O=C1C(=C2C=CN(CCN3CCCC3)C=C2)C(=O)c2ccccc21
inactive: dose: 50.0 mg/kg/injection, schedule: Q01DX009 (ip), vehicle: Klucel (hydroxypropylcellulose) (HPC) 94 % of control | dose: 100.0 mg/kg/injection, schedule: Q01DX009 (ip), vehicle: Klucel (hydroxypropylcellulose) (HPC) 99 % of control | dose: 200.0 mg/kg/injection, schedule: Q01DX009 (ip), vehicle: Klucel (hydroxypropylcellulose) (HPC) 99 % of control

COc1cc2c(c(=O)c3ccccc3n2C)c2c1c(=O)c1ccccc1n2C
inactive: [7] 96 % of control | [8] 98 % of control

C1=CCC23COCC2(C1)CSC3 (stereo not given)
inactive: [5] 96 % of control | [1] 92 % of control | [2] 99 % of control

CN(C)C1C(=O)C(C(=O)NP(=O)(NCCCO)N(CCCl)CCCl)=C(O)C2(O)C(=O)C3=C(O)c4c(O)cccc4C(C)(O)C3CC12 (stereo not given)
inactive: dose: 0.25 mg/kg/injection, schedule: Q01DX005 (ip), vehicle: saline 92 % of control | dose: 0.5 mg/kg/injection, schedule: Q01DX005 (ip), vehicle: saline 102 % of control | dose: 1.0 mg/kg/injection, schedule: Q01DX005 (ip), vehicle: saline 104 % of control | dose: 2.0 mg/kg/injection, schedule: Q01DX005 (ip), vehicle: saline 100 % of control | dose: 3.13 mg/kg/injection, schedule: Q04DX003 (ip), vehicle: saline 98 % of control | dose: 4.0 mg/kg/injection, schedule: Q01DX005 (ip), vehicle: saline 101 % of control | dose: 6.25 mg/kg/injection, schedule: Q04DX003 (ip), vehicle: saline 102 % of control | dose: 8.0 mg/kg/injection, schedule: Q01DX005 (ip), vehicle: saline 101 % of control | dose: 12.5 mg/kg/injection, schedule: Q04DX003 (ip), vehicle: saline 103 % of control | dose: 25.0 mg/kg/injection, schedule: Q04DX003 (ip), vehicle: saline 107 % of control | dose: 50.0 mg/kg/injection, schedule: Q04DX003 (ip), vehicle: saline 108 % of control

CCCCCCC(O)C(CCCCCC)[Se]C (stereo not given)
inactive: dose: 50.0 mg/kg/injection, schedule: Q04DX003 (ip), vehicle: saline with Tween-80 104 % of control | dose: 100.0 mg/kg/injection, schedule: Q04DX003 (ip), vehicle: saline with Tween-80 106 % of control and 115 % of control | dose: 200.0 mg/kg/injection, schedule: Q04DX003 (ip), vehicle: saline with Tween-80 100 % of control

O=[N+]([O-])c1ccc(O)c(/C=N\NS(=O)(=O)c2ccc(Cl)cc2)c1
inactive: dose: 50.0 mg/kg/injection, schedule: Q01DX005 (ip), vehicle: saline with Tween-80 108 % of control | dose: 100.0 mg/kg/injection, schedule: Q01DX005 (ip), vehicle: saline with Tween-80 100 % of control

O=C1c2cccc(O)c2C(=O)c2c(OC3OC(CO)C(O)C(O)C3O)cccc21 (stereo not given)
inactive: [2] 94 % of control | [3] 93 % of control | [4] 88 % of control

C(=Nc1cccc2ccccc12)Nc1cccc2ccccc12.[Cu+2]
inactive: [6] 96 % of control | [9] 98 % of control | [10] 95 % of control

O=C(O)C(Cc1ccccc1)NSc1ccccc1[N+](=O)[O-] (stereo not given)
inactive: dose: 25.0 mg/kg/injection, schedule: Q01DX009 (ip), vehicle: distilled water + Tween-80 98 % of control and 100 % of control | dose: 50.0 mg/kg/injection, schedule: Q01DX009 (ip), vehicle: distilled water + Tween-80 107 % of control | dose: 100.0 mg/kg/injection, schedule: Q01DX009 (ip), vehicle: distilled water + Tween-80 100 % of control and 116 % of control | dose: 200.0 mg/kg/injection, schedule: Q01DX009 (ip), vehicle: distilled water + Tween-80 109 % of control

O=c1ccc2c(O)c3ccoc3cc2o1
inactive: [11] 101 % of control | dose: 200.0 mg/kg/injection, schedule: Q01DX001 (ip), vehicle: Klucel (hydroxypropylcellulose) (HPC) 111 % of control | dose: 400.0 mg/kg/injection, schedule: Q01DX001 (ip), vehicle: Klucel (hydroxypropylcellulose) (HPC) 106 % of control

CCCCCCCCCC(=O)OC(C)C(=O)N(CCCC)CCCC (stereo not given)
inactive: [9] 110 % of control | [10] 102 % of control | dose: 400.0 mg/kg/injection, schedule: Q01DX009 (ip), vehicle: saline with Tween-80 106 % of control

Cc1ccccc1-n1c(SCC(=O)NC(=O)Nc2cccc(Cl)c2)nc2c(Br)cc(Br)cc2c1=O
inactive: [7] 99 % of control | [8] 101 % of control | dose: 240.0 mg/kg/injection, schedule: Q01DX005 (ip), vehicle: Klucel (hydroxypropylcellulose) (HPC) 87 % of control

O=C(O)c1cccc(O)c1O
inactive: [3] 101 % of control and 104 % of control | [4] 89 % of control and 96 % of control | dose: 600.0 mg/kg/injection, schedule: Q01DX009 (ip), vehicle: saline 101 % of control and 89 % of control

COc1ccc2cc1-c1cc(ccc1O)CCC(O)CC1CCCC(CC(O)CC2)N1 (stereo not given)
inactive: dose: 15.0 mg/kg/injection, schedule: Q01DX009 (ip), vehicle: Klucel (hydroxypropylcellulose) (HPC) 100 % of control | dose: 30.0 mg/kg/injection, schedule: Q01DX009 (ip), vehicle: Klucel (hydroxypropylcellulose) (HPC) 107 % of control

COc1cc2c(cc1OC)CC[N+](CCC[N+](C)(C)C)=C2
inactive: [5] 104 % of control | [1] 95 % of control | [2] 97 % of control | [3] 89 % of control

NC(=O)C1CCCN1C(=O)C1CCCN(Cc2cc(CN3CCCC(C(=O)N4CCCC4C(N)=O)C3)cc(CN3CCCC(C(=O)N4CCCC4C(N)=O)C3)c2)C1 (stereo not given)
inactive: dose: 60.0 mg/kg/injection, schedule: Q01DX005 (ip), vehicle: saline 104 % of control | dose: 120.0 mg/kg/injection, schedule: Q01DX005 (ip), vehicle: saline 98 % of control | dose: 240.0 mg/kg/injection, schedule: Q01DX005 (ip), vehicle: saline 95 % of control

C=C(C#N)C(NC(C)(C)C)c1ccccc1 (stereo not given)
inactive: dose: 12.5 mg/kg/injection, schedule: Q01DX001 (ip), vehicle: saline 96 % of control | dose: 25.0 mg/kg/injection, schedule: Q01DX001 (ip), vehicle: saline 100 % of control | dose: 50.0 mg/kg/injection, schedule: Q01DX001 (ip), vehicle: saline 115 % of control

O=C(O)C1CC(c2ccccc2)=NN1c1ccccc1 (stereo not given)
inactive: dose: 12.5 mg/kg/injection, schedule: Q01DX009 (ip), vehicle: water 99 % of control | dose: 25.0 mg/kg/injection, schedule: Q01DX009 (ip), vehicle: water 98 % of control | dose: 50.0 mg/kg/injection, schedule: Q01DX009 (ip), vehicle: water 103 % of control | dose: 88.0 mg/kg/injection, schedule: Q01DX009 (ip), vehicle: water 112 % of control and 120 % of control | dose: 100.0 mg/kg/injection, schedule: Q01DX009 (ip), vehicle: water 109 % of control | dose: 133.0 mg/kg/injection, schedule: Q01DX009 (ip), vehicle: water 119 % of control and 124 % of control | dose: 200.0 mg/kg/injection, schedule: Q01DX009 (ip), vehicle: water 123 % of control | dose: 300.0 mg/kg/injection, schedule: Q01DX009 (ip), vehicle: water 122 % of control

CN(C)CC(CN1CCCC1)C(=O)c1ccccc1 (stereo not given)
inactive: dose: 3.12 mg/kg/injection, schedule: Q01DX009 (ip), vehicle: saline 96 % of control | dose: 3.13 mg/kg/injection, schedule: Q01DX009 (ip), vehicle: saline 96 % of control | dose: 6.25 mg/kg/injection, schedule: Q01DX009 (ip), vehicle: saline 99 % of control and 116 % of control (2×) | [5] 114 % of control | [1] 112 % of control and 121 % of control and 122 % of control | [2] 102 % of control

NC(=S)c1ccc(C=Nc2ccc(I)cc2)cc1
inactive: dose: 25.0 mg/kg/injection, schedule: Q01DX001 (ip), vehicle: Klucel (hydroxypropylcellulose) (HPC) 93 % of control | dose: 50.0 mg/kg/injection, schedule: Q01DX001 (ip), vehicle: Klucel (hydroxypropylcellulose) (HPC) 102 % of control | [11] 100 % of control
